Data reported in ChEMBL document CHEMBL3507680, “University of Dundee, Gates Library screen for HepG2 cell viability”.

Experiment: Human HepG2 cell viability assay in 384 well format
Assay type: toxicity, cell-based
Design: dose 125 nL, time 70.5 hour; concentration not given beside the values
Conditions: HepG2 cells, read-out: Inhibition

Row | Compound | cytotoxicity at 70.5 h [%]
1 | Cc1cc(F)ccc1-n1cc(O)c(C(N)=O)n1 | -19
2 | N#Cc1ccc(N2CCC3(CC2)CC(OCc2cccnc2)CO3)cc1 (centres undefined) | -1.15
3 | O=C(Nc1ccccc1)c1ccc(NCc2ccncc2)nn1 | -5.4
4 | CCN(C(=O)NCCc1ccccc1Cl)C(C)CS(C)(=O)=O (centres undefined) | 20.5
5 | CC[C@]12CN3C[C@](CC)(CN(C1)C3c1[nH]c(=O)[nH]c(=O)c1C)C2=O (some centres undefined) | 19.3
6 | Cc1nc(CN2CCC3(CCN(Cc4nccn4C)CC3)C2=O)cs1 | -7.58
7 | CCC[C@@H]1CN(Cc2nnc(-c3cccc(F)c3)o2)C[C@H]1NC(C)=O | -15.2
8 | Cc1n[nH]c(C2CN(C(=O)c3ccoc3C)CCO2)n1 (centres undefined) | 1.53
9 | Cc1nn(-c2ccccn2)c(C)c1[C@@H]1C=C[C@@H](NC(=O)CCC(=O)O)C1 | -6.4
10 | CNc1nc(C)c(C(=O)N2C[C@@H](C(=O)O)[C@H](C3CC3)C2)s1 | -6.65
11 | O=C(Cc1ccccc1Cl)NCC1CCN(Cc2ccsc2)CC1 | -5.31
12 | CNC(=O)c1noc(Cn2ncc3ccccc3c2=O)n1 | 0.589
13 | O=C(CCc1nccs1)N1CCN(c2ccc(Cl)cn2)CC1 | -5.57
14 | Cc1ccsc1C(=O)Nc1cc(Br)c(=O)n(C)c1 | -8.88
15 | Cc1cc(C(=O)N2CCn3cc(CN4CCN(C)CC4)nc3C2)no1 | -11.8
16 | Cc1nc(C2CCCN(C(=O)c3ccc(OCC4CC4)nc3)C2)no1 (centres undefined) | -2.87
17 | COc1ccc(-c2ccc(C(=O)O)c(F)c2)c(F)c1 | 27.5
18 | COCC1CN(c2ccc(C)nn2)Cc2cnn(C)c21 (centres undefined) | -7.14
19 | O=C(Cc1cccc(F)c1)N1C[C@H]2CN(Cc3cccnc3)C[C@H]2C1 | -12
20 | CCN(Cc1cc(Cl)c(O)c(OC)c1)Cc1nc(COC)no1 | -4.93
21 | CCN(Cc1ccc(C#N)cc1F)C(=O)C(C)(C)C | -0.767
22 | Cc1nccn1-c1cccc(C2CCCN2S(=O)(=O)N(C)C)n1 (centres undefined) | 2.07
23 | O=C1[C@@H]2CCN(C3CCC3)C[C@@H]2OCCN1Cc1ccncc1 | 20.5

Row | Compound | cytotoxicity at 70.5 h [%]
24 | Cn1ncnc1-c1ccnc(N2CCC(C(O)c3cccs3)CC2)n1 (centres undefined) | -10.9
25 | CCN1C(=O)C2(CCCCC2)NC12CCSCC2 | -7.61
26 | COCCc1nc(CN2CC(C)(c3ccccc3)CCC2=O)no1 (centres undefined) | -2.58
27 | Cc1nc(NC(=O)COCC(F)(F)F)ccc1Br | 1.69
28 | CNC(=O)c1cccc(NC(=O)CN2CCCN(S(C)(=O)=O)CC2)c1 | -5.6
29 | CC(C)C(Sc1nnc(C2CC2)n1C1CC1)C(=O)NCc1cccnc1 (centres undefined) | -8.64
30 | COC[C@]1(O)CCN(c2cc(C3CC3)ncn2)CC1(C)C | -10.5
31 | c1coc(CN2CCn3c(nc4ccccc43)C2)c1 | 29.8
32 | COc1ccc2c(c1)CCCC2CC(=O)O (centres undefined) | -19.3
33 | CCn1cnnc1CNC(=O)NC(C)c1ccccn1 (centres undefined) | 9.12
34 | CC(C)COC[C@H]1CC[C@H]2[C@H](CCN2C(=O)c2ccncc2F)O1 | -0.218
35 | CCN(CC1CN(Cc2ccn(C(C)C)n2)CCO1)c1cccnn1 (centres undefined) | 1.41
36 | CC(c1ccccn1)N(C)Cc1cccc(C(=O)Nc2nccn2C)c1 (centres undefined) | 8.36
37 | CN(C)c1nc2n(c(=O)n1)CCN2C(=O)Nc1cccc(Cl)c1 | -9.23
38 | O=C(c1cscn1)N1C[C@H](OCc2cccnc2)[C@H]2COC[C@H]21 | -5.24
39 | CC(CCc1ccc(O)cc1)NC1CCN(S(C)(=O)=O)CC1 (centres undefined) | -4.22
40 | CC(CNCc1ccc(Cl)cc1)Oc1ccccn1 (centres undefined) | -10
41 | Cc1ccc(=O)n(CC2(O)CCN(Cc3ccsc3)CC2)n1 | -10.6
42 | CC(NC(=O)c1cccc(CN2CCN(C)CC2)c1)c1ccccn1 (centres undefined) | 0.178
43 | Cc1cc(C2CCCN2CCCc2nc3ccccc3o2)on1 (centres undefined) | -16.1
44 | CC(c1nc(C2CC2)no1)N1CCN(CCN2CCCC2=O)CC1 (centres undefined) | -0.249
45 | COc1cncc(N2CCN(Cc3cccn3C)CC2)n1 | 3.9
46 | CS(=O)(=O)CCCC(=O)N1CCN(CC2CC2)c2ccccc21 | -7.11

Row | Compound | cytotoxicity at 70.5 h [%]
47 | CC(Oc1ccc(F)c(F)c1)C(=O)N(CC(N)=O)C1CCCC1 (centres undefined) | 27.6
48 | Cc1ccsc1C(=O)N1CC2CC1(C(=O)NCc1ccco1)C2 | 13.9
49 | CN(C)C(=O)N1CCc2c(nnn2C)C1COCc1ccccc1 (centres undefined) | -2.85
50 | Cc1c(C(=O)N2CCCC2c2cnn(C)c2)cnn1-c1ccccc1 (centres undefined) | 17.9
51 | Cc1ccc(NC2CCN(C(=O)c3ccc(C)o3)CC2)nn1 | -0.446
52 | CS(=O)(=O)Nc1ccn(Cc2ccc(Br)cc2)n1 | -8.91
53 | Cn1cnc(S(=O)(=O)N2CCCC2c2ccnc3nccn23)c1 (centres undefined) | 0.418
54 | CCOCCOC(C)C(=O)NCc1cn2cc(Cl)ccc2n1 (centres undefined) | 15.2
55 | CCCOc1ccccc1C(N)CC(C)C (centres undefined) | -9.52
56 | CCCS(=O)(=O)N1CCN(CCOC)c2nc(C)ccc2C1 | -8.9
57 | CCOc1nnc(CN2CCOC(CNc3cccnn3)C2)s1 (centres undefined) | 15
58 | COc1ccc(C(C)NCCC(N)=O)cc1F (centres undefined) | 1.06
59 | Cc1ccc(N2CC[C@H]3OCC[C@@]3(C(=O)NCC3CC3)C2)nn1 | -7.61
60 | CN(CC(=O)NC(C)(C#N)C1CC1)Cc1nc2ccccc2n1C (centres undefined) | 4.49
61 | OC1(CNCCCN2CCCc3ccccc32)CNCCOC1 (centres undefined) | -13
62 | CN(CC(F)(F)F)C(=O)CN1CCC(c2cc3ccccc3[nH]2)CC1 | -25
63 | Cc1ccc(-c2cn3c(n2)CO[C@@H](CNCc2nccn2C)C3)cc1 | -5.86
64 | COc1ccnc(CN2CCC=C(C(C)NC(C)=O)C2)c1OC (centres undefined) | -3.19
65 | Cc1cncc(C(=O)N2CCNCC2C(=O)Nc2ccc(C)nc2)c1 (centres undefined) | -3.64
66 | CCC(C)N1CCc2nc(N3CCCC3)nc(NC(C)C)c2C1 (centres undefined) | -7.15
67 | CC(C)C(=O)N1CCN(C(=O)c2cc(Cl)no2)[C@H]2CS(=O)(=O)C[C@H]21 | -2.12
68 | Cc1nn(C)c2ncc(CN3CCN(c4ncccn4)CC3)cc12 | -21.9
69 | CCN1Cc2cc(OC)ccc2N(CC(C)(C)O)CCC1=O | -13

Row | Compound | cytotoxicity at 70.5 h [%]
70 | O=C(c1ccccc1)N1CCOC2CNCC[C@H]21 (some centres undefined) | -7.04
71 | CS(=O)(=O)c1ccc(O[C@H]2COCCN(Cc3ccncc3)C2)cc1 | -6.23
72 | Cc1nccc(-c2cccc(-c3ccn(CC4CCNC4)n3)c2)n1 (centres undefined) | -3.45
73 | C[C@@H]1CN(c2nc3c(cc2C(N)=O)CCC3)C[C@@]1(O)C1CCC1 | -11.3
74 | CCCc1cc(N2CCCC2Cn2cc(C)cn2)n2ncnc2n1 (centres undefined) | -8.77
75 | C=Cn1cc(CN2CCN(CC3(c4ccccc4)CC3)CC2)c(C)n1 | -2.78
76 | Cc1ccc(CC(=O)NCCCNS(C)(=O)=O)cc1 | 1.07
77 | COC(=O)C1C=CCN1C(=O)c1cc(COc2ccccc2)[nH]n1 (centres undefined) | -5.33
78 | Cc1ccnc(NC(=O)c2c(C)oc(C)c2C)c1 | 9.9
79 | Cc1ccc(C2CN(Cc3cccc4[nH]ccc34)CCO2)nc1 (centres undefined) | 46
80 | Cc1noc(C)c1C(=O)NCC(C)N(C)C (centres undefined) | 4.18
81 | CC(C)NS(=O)(=O)c1cc(C(=O)O)cc(-c2ccc3c(c2)OCO3)c1 | -9.21
82 | CC(C)n1c(=O)nc2n1C(=O)N(c1ccc(Br)cc1)C2 | -16.1
83 | O=C(CCNc1ccc(Br)cn1)NCc1ccncc1 | 0.0133
84 | Cc1nc(C2(O)CCCNCC2)sc1CCOc1ccccc1Cl (centres undefined) | 1.01
85 | O[C@@H]1C[C@@H](c2nc(-c3ccccc3)no2)N(C2CCOCC2)C1 | -3.47
86 | CCc1nc2n(n1)CC(NCC(=O)Nc1cc(C)on1)CC2 (centres undefined) | 12.5
87 | CN(C)c1ncc(-c2cc(C(=O)N3CCCC3)n(CC3CC3)c2)cn1 | -11
88 | CN(C)c1ncc(-c2cc(C(=O)O)n(CC3CC3)c2)cn1 | -4.19
89 | O=C(CCNC(=O)c1sccc1-c1ccccc1)NC1CCS(=O)(=O)C1 (centres undefined) | -9.28
90 | Cc1n[nH]c(C)c1NC(=O)NCc1ccccn1 | -8.47
91 | c1ccc2sc(NCC3(N4CCOCC4)CCSC3)nc2c1 (centres undefined) | -4.14
92 | Cc1cccc(CN2CCc3ncnc(NC4CCC4)c3CC2)n1 | 5.7

Row | Compound | cytotoxicity at 70.5 h [%]
93 | CCC1CN(Cc2nnc(C3CC3)o2)CCC(=O)N1Cc1ccccc1 (centres undefined) | 20.4
94 | COCCCn1ccc(NC(=O)NCCCNc2ccccc2)n1 | -3.49
95 | Cc1cc(C)n(C2CN(C(=O)CN3C(=O)CSc4ccccc43)C2)n1 | 0.11
96 | c1cc(CCN2CCCC2CN2CCCCC2)ccn1 (centres undefined) | 25.4
97 | Cc1nn(CCNS(=O)(=O)NCc2ccccc2)c(C)c1Cl | -6.81
98 | C1=CCN(c2nc(CC3CC3)nc3c2CCN(C2CCOCC2)CC3)C1 | -1.95
99 | CCC(CC)C(=O)NCCC(=O)N1CCN(c2ccccn2)CC1 | 2.35
100 | CC(C)CC(=O)NCc1cccc(OCCN(C)C2CCOCC2)c1 | -4.5
101 | COc1ccc(C(=O)N(C)Cc2nnc3ccccn23)cc1 | 10.4
102 | O=C(CN1CC(n2cccn2)C1)NCCC1=CCCCC1 | -6.23
103 | COc1ccccc1CN1C(=O)O[C@@H]2CN(CC3CC3)C[C@@H]21 | -0.52
104 | CN(CCc1ccccc1)C(=O)c1cccnc1OCC(F)(F)F | 20
105 | Cc1nn(C)c(C)c1CN1CCCC1c1nccc(CN(C)C)n1 (centres undefined) | -0.0769
106 | CC(=O)Nn1c(C)cc(CN2CCC(c3ccncc3)CC2)c1C | -2.26
107 | CCN(CC)CCNC(=O)c1ccc(Cl)c(NS(C)(=O)=O)c1 | 4.61
108 | CCC(C)S(=O)(=O)N(Cc1ccco1)Cc1ccccc1O (centres undefined) | -10.4
109 | CNc1cc(N2CCCC2CNCc2cscn2)ncn1 (centres undefined) | 1.05
110 | COc1ccc(Cn2cc(C(=O)N(C)Cc3ccon3)nn2)cc1 | -3.92
111 | NC(=O)C1CCN(CCCNC(=O)Nc2nccs2)CC1 | -25.9
112 | Cc1cc(C)n(CCC(=O)N2CCC(Nc3cccnn3)CC2)n1 | -12.8
113 | Cc1nn2cnnc2c(C)c1CCC(=O)Nc1nnc(C(C)C)s1 | 12.1
114 | c1ccc(CN2CCc3ncnc(-c4ccoc4)c3CC2)nc1 | -5.45
